Assay results reported in patent US9045445B2, “Glycine transporter-1 inhibitors, methods of making them, and uses thereof” (Albany Molecular Research, Inc., priority 2010, dated 2015).
Counter-ions that a name gives are not always drawn. Like-named read-outs stand apart in the source and are kept apart here.

Tests used:
[1] = system: cerebrospinal fluid (CSF) glycine levels; experiment: CSF-glycine assay after oral administration; format: in vivo; conditions: Rattus norvegicus, po, rats, read-out: % CSF Glycine Increase versus Vehicle Control
Protocol: This study measured cerebrospinal fluid (CSF) glycine levels after oral administration of test compound. […] After the specified pretreatment time, the rats were euthanized by CO2 asphyxiation and a hypodermic needle was inserted into the cisterna magna to withdraw 50-100 μl of CSF. The CSF was diluted with deuterated-glycine as an internal standard glycine was quantified by LC/MS/MS.

[2] = molecular target: T1, glycine transporter-2 (GlyT-2) (Homo sapiens, UniProt Q9Y345); experiment: [14C]glycine uptake assay in HEK-GlyT-2 transfected cells; format: cell-based; conditions: HEK-GlyT-2 cells
T1 construct: expressed in transfected cells
T1 sequence (Q9Y345 1-797): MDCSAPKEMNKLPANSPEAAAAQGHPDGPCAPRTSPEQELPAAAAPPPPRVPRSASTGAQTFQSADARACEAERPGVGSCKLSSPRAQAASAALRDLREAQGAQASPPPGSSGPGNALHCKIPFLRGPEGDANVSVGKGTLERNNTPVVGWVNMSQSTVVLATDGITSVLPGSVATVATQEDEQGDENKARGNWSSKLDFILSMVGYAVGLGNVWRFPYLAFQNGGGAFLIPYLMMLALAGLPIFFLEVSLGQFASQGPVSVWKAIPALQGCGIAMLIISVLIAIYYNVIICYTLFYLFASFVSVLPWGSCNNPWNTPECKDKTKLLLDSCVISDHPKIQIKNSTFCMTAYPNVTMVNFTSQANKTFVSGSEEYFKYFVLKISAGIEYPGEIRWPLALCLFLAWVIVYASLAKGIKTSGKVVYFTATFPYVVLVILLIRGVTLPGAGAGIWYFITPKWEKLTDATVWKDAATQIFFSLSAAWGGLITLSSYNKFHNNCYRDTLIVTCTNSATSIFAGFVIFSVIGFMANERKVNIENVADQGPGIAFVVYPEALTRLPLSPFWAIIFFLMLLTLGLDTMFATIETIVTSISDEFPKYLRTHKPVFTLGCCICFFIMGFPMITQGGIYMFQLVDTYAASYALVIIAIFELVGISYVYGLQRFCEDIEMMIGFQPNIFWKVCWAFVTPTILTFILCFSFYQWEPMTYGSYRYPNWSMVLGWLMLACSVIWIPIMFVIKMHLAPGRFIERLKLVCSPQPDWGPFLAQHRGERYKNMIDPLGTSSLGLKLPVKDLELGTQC

[3] = molecular target: T2, glycine transporter-1 (GlyT-1) (Homo sapiens, UniProt P48067); experiment: [14C]glycine uptake assay in JAR cells endogenously expressing GlyT-1 (scintillation proximity); format: cell-based; conditions: JAR cells, [14C]glycine 5 μM, 3 hour incubation; read-out: GlyT-1 IC50
T2 construct: JAR cells (ATCC#HTB-144), which endogenously express GlyT-1; host or cells: JAR human choriocarcinoma cells
T2 sequence (P48067 1-706): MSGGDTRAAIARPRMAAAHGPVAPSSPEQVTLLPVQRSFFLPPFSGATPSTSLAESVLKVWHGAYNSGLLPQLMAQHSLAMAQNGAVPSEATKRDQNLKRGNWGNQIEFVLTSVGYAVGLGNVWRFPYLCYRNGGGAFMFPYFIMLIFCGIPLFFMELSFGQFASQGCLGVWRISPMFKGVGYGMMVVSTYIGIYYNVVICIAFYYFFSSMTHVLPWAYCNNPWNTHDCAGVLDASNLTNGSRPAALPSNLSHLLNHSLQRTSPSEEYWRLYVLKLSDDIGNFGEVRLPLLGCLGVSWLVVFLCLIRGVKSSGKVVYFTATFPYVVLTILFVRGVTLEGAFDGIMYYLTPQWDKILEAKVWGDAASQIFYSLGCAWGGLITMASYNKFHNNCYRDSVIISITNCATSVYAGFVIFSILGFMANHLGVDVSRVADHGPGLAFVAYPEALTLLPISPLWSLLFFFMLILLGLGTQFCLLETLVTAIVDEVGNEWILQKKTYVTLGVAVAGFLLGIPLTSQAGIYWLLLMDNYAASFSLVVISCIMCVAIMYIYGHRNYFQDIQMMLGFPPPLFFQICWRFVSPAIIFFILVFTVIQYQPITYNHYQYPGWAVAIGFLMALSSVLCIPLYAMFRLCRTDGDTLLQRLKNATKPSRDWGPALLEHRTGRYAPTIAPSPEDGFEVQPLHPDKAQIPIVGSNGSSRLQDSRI
Outline: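 IC50 comes from a four-parameter fit of nine-point, duplicate curves measuring inhibition of 5 μM [14C]glycine uptake, read by scintillation proximity after 3 h at 37 °C. Cells are human JAR, which express GlyT-1 endogenously, given 10 min compound pre-treatment in pH 7.4 buffer with 5 mM alanine and 0.75% DMSO.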

Row | IC50 [2] [nM] | IC50 [3] [nM] | SMILES | further results
1 | > 75000 | 67 | CCCS(=O)(=O)N1CCN(C2(CNC(=O)c3c(F)cccc3F)CCC(F)(F)CC2)CC1 [compound 130, N-((4,4-Difluoro-1-(4-(propylsulfonyl)piperazin-1-yl)cyclohexyl)methyl)-2,6-difluorobenzamide Hydrochloride] | change in vivo at 10 mg/kg ([1]; 0.5 h, pretreatment 30 mins): 148%; change in vivo at 30 mg/kg ([1]; 0.5 h, pretreatment 30 mins): 185%; change in vivo at 75 mg/kg ([1]; 0.5 h, pretreatment 30 mins): 201%; change in vivo at 10 mg/kg ([1]; 2 h, pretreatment 120 mins): 123%; change in vivo at 30 mg/kg ([1]; 2 h, pretreatment 120 mins): 125%; change in vivo at 75 mg/kg ([1]; 2 h, pretreatment 120 mins): 201%
2 | > 75000 | 17 | CCCS(=O)(=O)N1CCN(C2(CNC(=O)c3ccc(C(F)(F)F)cc3Cl)CCC(F)(F)CC2)CC1 [compound 151, N-((4,4-Difluoro-1-(4-(propylsulfonyl)piperazin-1-yl)cyclohexyl)methyl)-2-chloro-4-(trifluoromethyl)benzamide Hydrochloride] | change in vivo at 10 mg/kg ([1]; 0.5 h, pretreatment 30 mins): 209%; change in vivo at 30 mg/kg ([1]; 0.5 h, pretreatment 30 mins): 221%; change in vivo at 100 mg/kg ([1]; 0.5 h, pretreatment 30 mins): 204%; change in vivo at 10 mg/kg ([1]; 2 h, pretreatment 120 mins): 169%; change in vivo at 30 mg/kg ([1]; 2 h, pretreatment 120 mins): 249%; change in vivo at 100 mg/kg ([1]; 2 h, pretreatment 120 mins): 238%
3 | > 135000 | 46 | Cn1cnc(S(=O)(=O)N2CCN(C3(CNC(=O)c4ccc(F)cc4F)CCC(F)(F)CC3)CC2)c1 [compound 162, N-((4,4-difluoro-1-(4-(1-methyl-1H-imidazol-4-ylsulfonyl)piperazin-1-yl)cyclohexyl)methyl)-2,4-difluorobenzamide Hydrochloride] | change in vivo at 10 mg/kg ([1]; 0.5 h, pretreatment 30 mins): 154%; change in vivo at 30 mg/kg ([1]; 0.5 h, pretreatment 30 mins): 178%; change in vivo at 100 mg/kg ([1]; 0.5 h, pretreatment 30 mins): 207%; change in vivo at 10 mg/kg ([1]; 2 h, pretreatment 120 mins): 130%; change in vivo at 30 mg/kg ([1]; 2 h, pretreatment 120 mins): 156%; change in vivo at 100 mg/kg ([1]; 2 h, pretreatment 120 mins): 156%
4 | > 75000 | 21 | CCCS(=O)(=O)N1CCN(C2(CNC(=O)c3ccc(Cl)cc3C3CC3)CCC(F)(F)CC2)CC1 [compound 253, 4-Chloro-2-cyclopropyl-N-((4,4-difluoro-1-(4-(propylsulfonyl)piperazin-1-yl)cyclohexyl)methyl) benzamide Hydrochloride] | 
5 | > 75000 | 7 | CCCS(=O)(=O)N1CCN(C2(CNC(=O)c3c(Cl)cc(C(F)(F)F)cc3C(F)(F)F)CCC(F)(F)CC2)CC1 [compound 254, 2-Chloro-N-((4,4-difluoro-1-(4-(propylsulfonyl)piperazin-1-yl)cyclohexyl)methyl)-4,6-bis(trifluoromethyl) benzamide Hydrochloride] | 
6 | > 75000 | 133 | CCCS(=O)(=O)N1CCN(C2(CNC(=O)c3ccc(C(F)(F)F)cc3Cl)CCC(F)(F)CC2)CC1C (stereo not drawn) [compound 256, 2-Chloro-N-((4,4-difluoro-1-(3-methyl-4-(propylsulfonyl)piperazin-1-yl)cyclohexyl)methyl)-4-(trifluoromethyl) benzamide Hydrochloride] | 
7 | > 75000 | 18 | CCCS(=O)(=O)N1CCN(C2(CNC(=O)c3ccc(C(F)(F)F)cc3Cl)CCC(F)(F)CC2)C(C)C1 (stereo not drawn) [compound 257, 2-Chloro-N-((4,4-difluoro-1-(2-methyl-4-(propylsulfonyl)piperazin-1-yl)cyclohexyl)methyl)-4-(trifluoromethyl) benzamide Hydrochloride] | 
8 | > 75000 | 9 | CCCS(=O)(=O)N1CCN(C2(CNC(=O)c3c(Cl)cc(C(F)(F)F)cc3Cl)CCC(F)(F)CC2)CC1 [compound 258, 2,6-Dichloro-N-((4,4-difluoro-1-(4-(propylsulfonyl)piperazin-1-yl)cyclohexyl)methyl)-4-(trifluoromethyl) benzamide Hydrochloride] | 
9 | > 75000 | 25 | CCCS(=O)(=O)N1CCN(C2(CNC(=O)c3c(F)cc(Cl)cc3F)CCC(F)(F)CC2)CC1 [compound 259, 4-Chloro-N-((4,4-difluoro-1-(4-(propylsulfonyl)piperazin-1-yl)cyclohexyl)methyl)-2,6-difluorobenzamide Hydrochloride] | 
10 | > 75000 | 17 | CCCS(=O)(=O)N1CCN(C2(CNC(=O)c3c(Cl)cc(Cl)cc3Cl)CCC(F)(F)CC2)CC1 [compound 260, 2,4,6-Trichloro-N-((4,4-difluoro-1-(4-(propylsulfonyl)piperazin-1-yl)cyclohexyl)methyl) benzamide Hydrochloride] | 
11 | > 75000 | 23 | CCCS(=O)(=O)N1CCN(C2(CNC(=O)c3cc(F)c(Cl)cc3Cl)CCC(F)(F)CC2)CC1 [compound 263, 2,4-Dichloro-N-((4,4-difluoro-1-(4-(propylsulfonyl)piperazin-1-yl)cyclohexyl)methyl)-5-fluorobenzamide Hydrochloride] | 
12 | > 75000 | 48 | CCCS(=O)(=O)N1CCN(C2(CNC(=O)c3cc(F)c(F)cc3Cl)CCC(F)(F)CC2)CC1 [compound 264, 2-Chloro-N-((4,4-difluoro-1-(4-(propylsulfonyl)piperazin-1-yl)cyclohexyl)methyl)-4,5-difluorobenzamide Hydrochloride] | 
13 | > 75000 | 11 | CCCS(=O)(=O)N1CCN(C2(CNC(=O)c3c(C)cc(Cl)cc3C)CCC(F)(F)CC2)CC1 [compound 266, 4-Chloro-N-((4,4-difluoro-1-(4-(propylsulfonyl)piperazin-1-yl)cyclohexyl)methyl)-2,6-dimethylbenzamide Hydrochloride] | 
14 |  | 46 | CCCS(=O)(=O)N1CCN(C2(CNC(=O)c3ccc(C(F)(F)F)cc3C(F)(F)F)CCOCC2)CC1 [compound 267, N-((4-(4-(propylsulfonyl)piperazin-1-yl)tetrahydro-2H-pyran-4-yl)methyl)-2,4-bis(trifluoromethyl) benzamide Hydrochloride] | change in vivo at 10 mg/kg ([1]; 2 h, pretreatment 120 mins): 138%; change in vivo at 30 mg/kg ([1]; 2 h, pretreatment 120 mins): 229%; change in vivo at 10 mg/kg ([1]; 6 h, pretreatment 360 mins): 129%; change in vivo at 30 mg/kg ([1]; 6 h, pretreatment 360 mins): 190%
15 | > 75000 | 47 | O=C(NCC1(N2CCN(S(=O)(=O)N3CCCC3)CC2)CCC(F)(F)CC1)c1ccc(C(F)(F)F)cc1Cl [compound 270, 2-Chloro-N-((4,4-difluoro-1-(4-(pyrrolidin-1-ylsulfonyl)piperazin-1-yl)cyclohexyl)methyl)-4-(trifluoromethyl)benzamide Hydrochloride] | 
